Experimental findings from paper PMC5058653, “A Fhit-mimetic peptide suppresses annexin A4-mediated chemoresistance to paclitaxel in lung cancer cells” (Oncotarget, 2016) are described below.

For data set [1] the following is noted: culture medium over adherent cells, 24 h after administration, read-out MALDI mass spectrometry. An excerpt:
We tested the stability of our peptides in the culture medium over adherent cells through Mass Spectroemtry-MALDI.

For a further data set, the target named is T1, Annexin A4 (Homo sapiens, UniProt P09525).
T1 construct: endogenous in cells; host or cells: A549 total lysates
T1 sequence (P09525 1-319): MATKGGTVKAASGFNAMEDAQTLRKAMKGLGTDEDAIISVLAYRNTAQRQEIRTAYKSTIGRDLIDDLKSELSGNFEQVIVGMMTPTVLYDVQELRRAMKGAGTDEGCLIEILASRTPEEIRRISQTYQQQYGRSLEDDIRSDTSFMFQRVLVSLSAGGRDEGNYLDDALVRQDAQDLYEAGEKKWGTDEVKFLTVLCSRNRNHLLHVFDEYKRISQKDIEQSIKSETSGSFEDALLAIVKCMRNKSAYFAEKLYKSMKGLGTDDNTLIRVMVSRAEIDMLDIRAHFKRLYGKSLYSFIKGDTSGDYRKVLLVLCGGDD
Briefly: GST pull-down from A549 total lysates, immunoblot for Annexin 4. In kind it is binding. The conditions noted are these: GSH resin beads, 12 h at 4°C. An excerpt: In order to map the region of Fhit protein binding Annexin A4, we cloned downstream GST three truncated FHIT cDNAs, namely TR1 (332 bp), TR2 (212 bp) and TR3 (113 bp), all containing the N-terminus common to the wild-type Fhit protein. TR1, TR2, and TR3 correspond to the 111, 71, and 38 N-terminal aminoacids of Fhit protein, respectively (Figure 1A). Annexin A4 binds wild-type Fhit/GST fusion protein as well as all shorter forms of Fhit fusion proteins, indicating its binding to the N-terminus of Fhit (Figure 1B). In our previous paper, we reported that Fhit/Annexin A4 interaction was only detectable in the presence of DSP [19]. DSP is a cross-linker containing an amine-reactive N-hydroxysuccinimide (NHS); NHS esters react with primary amine group located at lysine (Lys, K) residue sidechain. Since Lys residues are abundant and easily accessible on the hydrophilic surface of most proteins they usually crosslink with high efficiency.
Figure 1 Fhit peptide interacts with Annexin 4 A. GST-Fhit fusion protein and three deletion mutant proteins. Fhit was deleted from the C-terminal site. B. GST-FHIT plasmids were amplified in BL21 bacteria by stimulation with IPTG […] for 6 h at 30°C. Recombinant GST-Fhit fusion proteins were purified with GSH resin beads and added to A549 total lysates. 12 h after incubation at 4°C, GSH resin beads were washed and proteins eluted. […]

The test system of a further data set is A549 cells. As to the kind of experiment: A549 tumor xenograft in nude mice, tumor weight. The class given is in vivo, mouse. The conditions noted are these: s.c. A549 xenograft, paclitaxel alone 40 mg/kg single i.v. dose, 48 h, n = 5 mice per group. The protocol:
We further investigated the in vivo effects of Tat-Fhit 7-13 peptide with or without paclitaxel treatment in a preclinical model of lung cancer, using six groups of mice (n = 5 mice per group). Each group was subcutaneously injected with 1×10^7 A549 cells. When tumors reached the diameter of 15 mm, three groups were treated either with a single administration of 40 mg/kg paclitaxel, or 50 mg/kg Tat-Fhit 7-13 peptide, or both; mice were monitored on a regular basis. The remaining three groups, used as controls, were either left untreated or treated with Tat-Fhit 7-13 scrambled or treated with Tat-Fhit 7-13 scrambled plus paclitaxel; 48 h after treatments, mice were sacrificed and tumors were evaluated by weight.
Figure 3 Tat-Fhit 7-13 peptide in combination with paclitaxel blocks in vivo tumor formation A., C. Nude mice were subcutaneously injected with […] A549 cells. When tumors reached 15 mm diameter, mice were mock-treated, treated paclitaxel (single IV administration of 40 mg/kg), with scrambled Tat peptide (50 mg/kg) alone or in combination with paclitaxel, with Tat-Fhit 7-13 peptide (50 mg/Kg) alone or in combination with paclitaxel; paclitaxel and peptides were injected in a single administration and mice were monitored on a regular basis. Two days later, mice were sacrificed and tumors were evaluated by percent A. and by weight C.. […]

No end group written: not given here.

Regarding “YGRKKRRQRRRGLSKQPHI [Tat-Fhit 7-13 scrambled peptide]”, the “stability in the culture medium” value in data set [1] is “still stable and undegraded”. Consider “wild-type Fhit/GST fusion protein: recombinant full-length Fhit fused to GST, expressed in E. coli BL21”, for which the “binding of Annexin A4 (GST pull-down)” value in the data set with Annexin A4 is listed as “binds”. On to `CC(=O)O[C@H]1C(=O)[C@@]2(C)[C@H]([C@H](OC(=O)c3ccccc3)[C@]3(O)C[C@H](OC(=O)[C@H](O)[C@@H](NC(=O)c4ccccc4)c4ccccc4)C(C)=C1C3(C)C)[C@]1(OC(C)=O)CO[C@@H]1C[C@@H]2O` [paclitaxel], for which, in the data set with A549 cells, the “tumor wt, % of controls” value is recorded as 60%. For the compound “YGRKKRRQRRRGQHLIKPS [Tat-Fhit 7-13 peptide]”, the “stability in the culture medium” value in data set [1] was “still stable and undegraded”.
